Measured values reported in ChEMBL document CHEMBL3352112, “Exploiting the therapeutic potential of 8-β-d-glucopyranosylgenistein: synthesis, antidiabetic activity, and molecular interaction with islet amyloid polypeptide and amyloid β-peptide (1-42)” (J Med Chem, 2014).
In brackets after ≈: the same amount, converted by molar mass.

Test: Cytotoxicity against […] HII4E cells after 24 hrs by MTT cell viability assay
Type: cell-based

Q: With `O=C(N[C@H](CO)[C@H](O)c1ccc([N+](=O)[O-])cc1)C(Cl)Cl` [CHLORAMPHENICOL] as the molecule, how does the IC50 read?
A: 143 mg/L (≈ 443 µM)
